According to patent US20150361400A1, “COMPOSITIONS AND METHODS FOR MAINTAINING AND IMPROVING PANCREATIC ISLET CELL FUNCTION AND STABILITY” (WAKE FOREST UNIVERSITY HEALTH SCIENCES, priority 2013, published 2015):

Experiments:
autoimmune diabetes = settings: treatment of recipient NOD.scid mice before transfer of BDC-2.5 clone; cited from earlier work
[1] = test system: isolated cultured human islets; assay: RNA-Seq gene expression in isolated cultured human islets with or without Raloxifene; assay type: cell-based; settings: for % decrease in gene expression: 10 nM Raloxifene vs control
Method: FIG. 1: Inhibition of estrogen receptor signaling prevents dedifferentiation in cultured islets. Islets were either untreated or treated with an estrogen receptor selective estrogen receptor modulator (SERM; 10 nM Raloxifene). RNA-Seq analysis of cultured islets was performed following 4 days in culture. Raloxifene treatment was for one day on the final day of culture. Expression levels of individual genes were calculated by the method of RPKM (reads per kilobase per million mapped reads). Data is represented as the log of the ratio (Islets-Raloxifene: Islets-no treatment) where positive values indicate an increase in gene expression with Raloxifene treatment. […] (IL-8, CXXL6, SERPINB2, OLFM4).
Following isolation, the islet cell clusters are cultured in Connaught Medical Research Laboratory 1066 medium supplemented with 10 nM Raloxifene. These are the conditions described in the legend to FIG. 1.
An inflammatory gene expression profile is evoked following human islet isolation and culture and suppressed by Raloxifene treatment. Gene expression was assessed in isolated cultured human islets on multiple days following the isolation procedure. Islets were cultured in standard CMRL media with or without the addition of Raloxifene and gene expression profiles were assessed by RNA-Seq. In table 2A, the progressive increase of NFkB-target gene expression is observed over consecutive days in culture. Of note, significant increases in canonical NFkB targets (CCL2, CCL20, IL1B) as well as NFkB coordinately regulated gene clusters, such as the innate immunity gene cluster (APOL1-APOL6) were observed. In table 2B, Raloxifene treatment (10 nM) suppressed gene expression of the innate immunity gene cluster (APOL1-APOL6) which is typically observed to increase with the isolation and culture of human islets. Gene expression was assessed with RNA-Seq and quantification of gene transcripts is represented as RPKM ([…]). Note, three genes (APOL1, APOL2, and APOL6) in the innate immunity gene cluster were each reduced by Raloxifene treatment.

CCN1C=CC=C/C1=C1/C2=NC(=C(c3cccc[n+]3CC)C3=NC(=C(c4cccc[n+]4CC)c4ccc([n-]4)C(c4cccc[n+]4CC)=C4C=CC1=N4)C=C3)C=C2.[Cl-].[Cl-].[Cl-].[Cl-].[Cl-].[Mn+3] [AEOL-10113]
onset of diabetes (disease) (autoimmune diabetes): significantly delayed or prevented altogether

O=C(c1ccc(OCCN2CCCCC2)cc1)c1c(-c2ccc(O)cc2)sc2cc(O)ccc12 [Raloxifene]
endocrine phenotype of isolated islet cultures [1]: preserved the endocrine phenotype
gene expression of the innate immunity gene cluster (APOL1-APOL6) ([1]; 10 nM Raloxifene): suppressed
% decrease in gene expression ([1]; APOL1 gene): 15%
RPKM (Ral) ([1]; APOL1 gene, 10 nM Raloxifene, control 2.1): 1.8 RPKM
% decrease in gene expression ([1]; APOL2 gene): 68%
RPKM (Ral) ([1]; APOL2 gene, 10 nM Raloxifene, control 13.6): 4.3 RPKM
% decrease in gene expression ([1]; APOL6 gene): 41%
RPKM (Ral) ([1]; APOL6 gene, 10 nM Raloxifene, control 1.5): 0.9 RPKM
expression of housekeeping genes ([1]; GAPDH, ACTB, B2M, 10 nM, one day on final day of 4 days culture): without effect
increase in expression of inflammatory genes and genes associated with a dedifferentiation profile ([1]; IL-8, CXXL6, SERPINB2, OLFM4, 10 nM, one day on final day of 4 days culture): prevented
expression of genes associated with a differentiated phenotype ([1]; SYT8, INS, 10 nM, one day on final day of 4 days culture): increased expression
